Laboratory results from the supplement of paper PMC10307832.

Experiments:
Assay in all cases: relative viability (nuclei count vs DMSO), 5 days (fraction); higher = more cells survive
[1] = compound: COc1cc2c(Oc3ccc4[nH]c(C)cc4c3F)ncnc2cc1OCCCN1CCCC1 [Cediranib] + Cc1cc(Nc2cc(N3CCN(C)CC3)nc(Sc3ccc(NC(=O)C4CC4)cc3)n2)n[nH]1 [Tozasertib] (partner 0.1 µM)
Procedure, shortened: (§1)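 Nuclei were stained with Hoechst during a one-step fixation (final 0.05% Triton X-100, 1% formaldehyde, 1 ug/ml Hoechst) carried out 5 days after dosing, then counted on 4× images. The cells, lung cancer lines in 1536-well plates, had been dosed by pin tool the day after seeding with one drug alone or a fixed anchor-drug dose plus five library-drug doses (not always all listed) in √10 steps. Relative viability is the nuclei count in treated wells divided by that in vehicle wells, and each value is the median of duplicate plates.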

[2] = compound: COc1cc2c(Oc3ccc4[nH]c(C)cc4c3F)ncnc2cc1OCCCN1CCCC1 [Cediranib] + Cc1nc(Nc2ncc(C(=O)Nc3c(C)cccc3Cl)s2)cc(N2CCN(CCO)CC2)n1 [Dasatinib] (partner 0.075 µM)
Procedure, shortened: as §1

[3] = compound: Nc1ncn([C@H]2C[C@H](O)[C@@H](CO)O2)c(=O)n1 [Decitabine] + CC(=O)Nc1cccc(-n2c(=O)n(C3CC3)c(=O)c3c(Nc4ccc(I)cc4F)n(C)c(=O)c(C)c32)c1 [Trametinib] (partner 0.02 µM)
Procedure, shortened: as §1

[4] = compound: COc1cc2c(Oc3ccc4[nH]c(C)cc4c3F)ncnc2cc1OCCCN1CCCC1 [Cediranib] + CC(=O)Nc1cccc(-n2c(=O)n(C3CC3)c(=O)c3c(Nc4ccc(I)cc4F)n(C)c(=O)c(C)c32)c1 [Trametinib] (partner 0.02 µM)
Procedure, shortened: as §1

Cell Line	relative viability ([1]; first compound 0.04 µM)	relative viability ([1]; first compound 0.1265 µM)	relative viability ([1]; first compound 0.4 µM)	relative viability ([1]; first compound 1.265 µM)	relative viability ([1]; first compound 4 µM)	relative viability ([2]; first compound 0.04 µM)	relative viability ([2]; first compound 0.1265 µM)	relative viability ([2]; first compound 0.4 µM)	relative viability ([2]; first compound 1.265 µM)	relative viability ([2]; first compound 4 µM)	relative viability ([3]; first compound 0.04 µM)	relative viability ([3]; first compound 0.1265 µM)	relative viability ([3]; first compound 0.4 µM)	relative viability ([3]; first compound 1.265 µM)	relative viability ([3]; first compound 4 µM)	relative viability ([4]; first compound 0.04 µM)	relative viability ([4]; first compound 0.1265 µM)	relative viability ([4]; first compound 0.4 µM)	relative viability ([4]; first compound 1.265 µM)	relative viability ([4]; first compound 4 µM)
HOP-62	0.366	0.457	0.388	0.379	0.352	0.698	0.909	0.577	0.617	0.77	0.358	0.338	0.262	0.202	0.187	0.442	0.404	0.346	0.387	0.42
LC-2-ad	0.496	0.373	0.456	0.507	0.371	0.555	0.654	0.427	0.496	0.403	0.778	0.837	0.763	0.651	0.573	0.94	0.915	0.901	0.995	0.841
LCLC-97TM1	0.217	0.224	0.191	0.227	0.229	0.893	0.81	0.799	0.876	0.834	0.219	0.213	0.183	0.144	0.155	0.196	–	0.207	0.187	0.214
LCLC-103H	0.501	0.505	0.467	0.469	0.5	0.594	0.578	0.413	0.511	0.5	0.659	0.714	0.771	0.623	0.688	0.73	0.664	0.676	0.747	0.7
LK-2	0.195	0.156	0.175	0.194	0.162	0.283	0.224	0.331	0.212	0.262	0.692	0.674	0.605	0.435	0.371	0.889	0.573	0.668	0.742	0.643
LOU-NH91	0.473	0.67	0.646	0.708	0.658	0.522	0.78	0.51	0.495	0.552	0.661	0.831	0.78	0.707	0.757	0.841	0.808	0.796	0.751	0.786
LU99A	0.292	0.285	0.285	0.286	0.292	0.504	0.465	0.513	0.433	0.655	0.51	0.569	0.632	0.397	0.396	0.553	–	0.544	0.515	0.568
LXF-289	0.231	0.219	0.212	0.212	0.2	0.252	0.3	0.192	0.3	0.236	0.647	0.519	0.38	0.312	0.314	0.671	–	0.676	0.651	0.632
NCI-H23	0.43	–	0.365	0.399	0.395	0.729	–	0.7	0.375	1.07	0.344	0.365	0.238	0.191	0.255	0.483	0.426	0.419	0.325	0.424
